Measurements as given in patent publication US20100130598A1, “METHODS FOR INDUCING PROGRAMMED CELL DEATH” (Novogen Research Pty Ltd., priority 2008, published 2010).

Tests used:
[1] = system: phosphorylated mTOR (p-mTOR); assay: Western blot of EOC whole cell lysates for phospho-mTOR; type: cell-based, human; settings: EOC cells, 10 g/ml (as printed, FIG. 3 legend), 15 mins post-treatment
Description: (§1) Protein preparation and cellular fractionation. After drug treatment, protein was extracted and measured as previously described (Alvero et al, 2006). For separation of the cytoplasmic and mitochondrial fractions, cell pellets were processed using the ApoAlert™ Cell Fractionation Kit (BD Biosciences, San Jose, Calif.) according to the manufacturer's instructions. For separation of the cytoplasmic and nuclear fractions, pellets were processed using NE-PER Nuclear and Cytoplasmic Extraction (Pierce Biotechnology, Inc., Rockford, Ill.).
(§2) SDS-PAGE and Western blots. Cell lysates (20 μg protein) were denatured in sample buffer (2.5% SDS, 10% glycerol, 5% β-mercapto-ethanol, 0.15 M Tris (pH=6.8) and 0.01% bromophenol blue) and subjected to 12% SDS-PAGE as previously described (Kamsteeg et al, 2003). […]

LC3-II = assay: Western blot of EOC whole cell lysates for LC3-II; type: cell-based, human; settings: EOC cells, 10 g/ml (as printed, FIG. 3 legend)
Description: as §1, §2

EOC tumors = assay: Mouse EOC xenograft study; type: in vivo
Description: Mouse xenograft studies. The in vivo study as approved by the Yale University Institutional Animal Care & Use Committee. Cells (1×10^6 cells) were resuspended in 200 μ1 total volume of 50% RPMI and 50% BD Matrigel Matrix (BD Biosciences, Bedford, Mass.) and injected subcutaneously into the right flank of NCR nude mice. Intra-peritoneal therapy commenced eight days post-inoculation as follows: Paclitaxel 10 mg/kg q×3d, Carboplatin 40 mg/kg q×7d, and Compound 1 in 20% HPBCD, 100 mg/kg every day. Control groups received 20% HPBCD in PBS. Mice were treated and observed for 3 weeks. Tumor size was determined by caliper measurements and anti-tumor activity was analyzed with respect to maximal tumor inhibition (treated/control, T/C) as described previously (Kamsteeg et al, 2003).

EOC cells = assay: Flow cytometry with Hoechst and Propidium iodide staining (DNA fragmentation); type: cell-based, human; settings: Compound 1 10 g/ml (as printed, FIG. 1B legend), 24 h
Description: Cell lines and culture conditions. Established human EOC cell lines, A2780 and A2780/CP70 (gifts from Dr. T C Hamilton) (Behrens et al, 1997) were propagated in RPMI plus 10% fetal bovine serum (Gemini Bio-Products, Woodland, Calif.). Primary EOC cell lines were isolated from malignant ovarian ascites or explanted from ovarian tumors and cultured as previously described (Alvero et al, 2006). Purity of the EOC cells was 100% as determined by immuno-staining for cytokeratin 7 antigen. All cell lines were grown at 37° C. in a 5% CO2 atmosphere.
Flow cytometry with Hoechst and Propidium iodide staining. After treatment, cells were trypsinized, washed twice with PBS, and resuspended at 1×10^6 cells/ml. Cells were then stained with 5 μg/ml Hoechst 33342 (Invitrogen-Molecular Probes, Carlsbad, Calif.) and 1 μg/ml Propidium iodide (Sigma Aldrich) and incubated for 15 mins in the dark. Afterwards, data was acquired using BD LSR II System and analyzed using FloJo FACS analysis software (Tree Star, Inc., Ashland, Oreg.).

HPAC cells = assay: Apoptosis/necrosis by FACS (Annexin-V-FITC/PI), HPAC; type: cell-based, human
Description: (§3) Cells. Human pancreatic cell lines HPAC, MIAPaCa-2 and PANC-1 were obtained from the ATCC. (Manassas, Va.). The cells were maintained in DMEM media with Gln and high glucose (Mediatech, Manassas, Va.) with 10% fetal bovine serum (FBS, HyClone, Logan, Utah) and pencillin/streptomycin.
FACS Analysis. Apoptosis was measured by FACS analysis using Annexin-V-FITC and propidium iodide (PI) (Biovision, Mountain View, Calif.) as probes (Ahn et al., 2003). Mitochondrial membrane potential was measured by FACS analysis using JC-1 (Biovision) as a probe (Ahn et al., 2003). Cell cycle was analyzed on ethanol-fixed, RNaseA-treated cells staining with PI. In each spectrum, 10,000 gated events were recorded and analyzed with a FACSCalibur (BD Biosciences. San Jose, Calif.). All experiments were done in triplicate, error bars represent one standard deviation. Caspase inhibitor I (zVAD-fmk) was obtained from Calbiochem.

pancreatic cancer cells = assay: Simultaneous caspase activation, apoptosis and necrosis (Annexin-V-Cy5/sytox blue) by flow cytometry; type: cell-based, human; settings: Compound 10-treated, 10 μM, 48 hrs
Description: as §3
Caspase Activity After 48 h treatment with 10 μM Compound 10, HPAC, MIAPaCa-2 and PANC-1 cells were harvested by trypsinization and resuspended in DMEM media with 10% FBS. The cells were incubated with caspase substrates for 1 h at 37° C., 5% CO2, then probed with Annexin-V-Cy5 and sytox blue. Caspase +ve cells were gated as shown in the histograms and these cells are indicated on the Annexin-V-Cy5/sytox blue spectra as blue cells. In situ caspase activity was assayed using fluorescent substrates. For Caspase 2, FITC-VDVAD-fmk (Biovision K182-100), for Caspase 3, FITC-DEVD-fmk (K183-100) and for Caspase 9, FITC-LEHD-fmk (K199-100) was used. These substrates bind irreversibly to their respective activated caspases, and caspase activation was quantitated by flow cytometry. After 1 hr incubation at 37° C. in 5% CO2, the cells were washed with DPBS containing 5% FBS and resuspended in Annexin-V binding buffer containing Annexin-V-Cy5 (Biovision K103-3) and sytox blue (Invitrogen), a dye that binds necrotic cells. Caspase activation, apoptosis and necrosis were measured simultaneously using a violet, blue and red laser in a BD LSRII flow cytometer.

[2] = dose-escalating, 48 hr exposure

| SMILES | p-mTOR level [1] | levels of LC3-II (LC3-II) | tumor proliferation kinetics, final tumor size and volume (EOC tumors; dose-dependent, compared to carboplatin and paclitaxel) | T/C values (maximal tumor inhibition, treated/control) (EOC tumors; intra-peritoneal, 3 weeks, Compound 1 100 mg/kg every day, Carboplatin 40 mg/kg q×7d, Paclitaxel 10 mg/kg q×3d) [%] | toxic side effects (EOC tumors; mouse, in vivo) | cells staining positively for both Hoechst and PI (fragmented DNA) (EOC cells) [%] | effect of zVAD-fmk pre-treatment on induced apoptosis (HPAC cells; 10 μM zVAD-fmk 1 hr before 10 μM Compound 10, 42-46 h) | effect of zVAD-fmk pre-treatment on induced necrosis (HPAC cells; 10 μM zVAD-fmk 1 hr pre-treatment, 10 μM Compound 10 or Fas-activating antibody) | apoptosis (HPAC cells; [2]) | necrosis (HPAC cells; [2]) | caspase positive cells that bound both Annexin-V-Cy5 and sytox blue (later stages of apoptosis) (pancreatic cancer cells) | caspase positive cells that were Annexin-V positive and sytox blue negative (early stages of apoptosis) (pancreatic cancer cells) | caspase positive cells that were sytox blue positive and Annexin-V negative (necrosis) (pancreatic cancer cells) |
| --- | --- | --- | --- | --- | --- | --- | --- | --- | --- | --- | --- | --- | --- |
| COc1ccc(C2c3ccc(O)c(C)c3OCC2c2ccc(O)cc2)cc1 (stereo not shown) [Compound 1, 3-(4-hydroxyphenyl)-4-(4-methoxyphenyl)-8-methylchroman-7-ol] | down-regulated | significant increase | significant decrease | 30 | No toxic side effects | 95 | – | – | – | – | – | – | – |
| COc1ccc(C2c3ccc(O)cc3OCC2c2ccc(O)cc2)cc1 (stereo not shown) [Compound 10, 3-(4-hydroxyphenyl)-4-(4-methoxyphenyl)chroman-7-ol] | – | – | – | – | – | – | did not inhibit | inhibited | induced apoptosis in a dose-dependent fashion | Very little necrosis | Approximately 30% | Approximately 60% | Less than 5% |
